Data taken from patent publication US5401768A, “2,5,6,7-tetranor-4,8-inter-m-phenylene PGI2, derivative, manufacturing process thereof and its use” (Toray Industries, Inc., priority 1987, dated 1995).
In brackets after ≈: the same amount, converted by molar mass. Like-named read-outs stand apart in the source and are kept apart here. Each block holds one compound with its values, some of them ahead of it.

How the values were obtained:
[1] = tested on: gastric acid secretion; test: Gastric acid secretion-inhibiting action (pentagastrin-stimulated, perfused stomach); format: in vivo, Male SD rat; settings: PGE2 = 1; pentagastrin 0.05 μg/kg/min; femoral vein injection; area under pH curve
Experimental: Gastric acid secretion-inhibiting action
Male SD rat was incised in the abdomen under urethane anesthesia to open a hole at lumen of stomach. A double cannula was inserted from the hole and physiological saline was perfused in the stomack. The gastric acid flowed out was monitored by a pH meter (M. Chosh, H. Schild Br.J. Pharmacol 13, 54 (1958)). When the pH of the gastric acid was stabilized to about 4 after stimulation with continuous injection of pentagastrin at a rate of 0.05 μg/kg/min, the compound was injected through the femoral vein. As an index of the gastric acid secretion-inhibiting effect was measured using area enclosed by the curve from the point at which the pH started to increase by the gastric acid secretion-inhibiting effect to the point at which the pH is come back to the baseline. The relative effectiveness of gastric acid secretion-inhibiting effect of a compound was expressed when the value of PGE2 is 1, and the effectiveness of each compound was compared.

[2] = tested on: platelet aggregation; test: Platelet aggregation-inhibiting action (ADP-induced, platelet-rich plasma); format: cell-based; settings: ADP 10 μM, compound added 1 minute before ADP, human PRP, read-out: IC50 (concentration which inhibits 50% platelet aggregation)
Experimental: Blood taken from human median cubital vein was centrifuged at 800 rpm for 10 minutes and the upper part was collected as platelet-rich plasma (PRP). PRP was put into small test tubes and […] (ADP) was added thereto (final concentration of 10 μM) to induce platelet aggregation. The degree of platelet aggregation was measured as the change of turbidity determined by using a platelet aggregation measuring apparatus (commercially available from Rikadenki Co., Ltd., Tokyo). The compound was added 1 minute before the addition of ADP. The concentration which inhibits 50% aggregation was designated as IC50.

[3] = tested on: ulcer index (corpus of stomack); test: Cytoprotection (0.2N NaOH-induced gastric lesions, oral compound); format: in vivo; settings: 30 minutes before oral 0.2N NaOH, read-out: ED50 (dose by which the ulcer index decreased to 50% of control)
Experimental: According to the method by A. Robert (Gartroerterolegy, 77(3), 443 (1979)), 30 minutes after oral administration of the compound, 0.2N NaOH was administered orally to the animals. After an hour, the animal was sacrified by chloroform anesthesia and the stomack was removed and fixed in 5% formalin solution. After fixation, the stomack was cut along the great curvature. A total length of blooding spot appearing on the corpus of stomack was measured and served as the ulcer index. When the ulcer index of the control group is taken as 100%, the dose of the compound by which the ulcer index decreased to 50% is designated as ED50.

[4] = tested on: pressure of carotid arteries; test: Hypotensive effect (carotid artery pressure, chloralose anesthesia); format: in vivo, Wistar rat (male); settings: Rattus norvegicus, femoral catheter injection, read-out: ED25 mmHg (dose which may reduce the blood pressure by 25 mmHg)
Experimental: Under chloralose anesthesia, catheter was inserted to carotid arteries of Wistar rat (male). The catheter was connected to a polygraph via pressure transducer to measure the pressure of carotid arteries. The compound was injected via catheter connected to a femoral articles. The dose which may reduce the blood pressure by 25 mmHg from the dose-response curve was designated as ED25. The effectiveness of each compound was compared based on it.

[5] = tested on: gastric acid secretion; test: Gastric acid secretion-inhibiting action by pylorus ligation (Shay's method); format: in vivo; settings: Rattus norvegicus, injected into duodenum, 5 hours, 5 animals in a group
Experimental: Gastric acid secretion-inhibiting action by pylorus ligation
According to the Shay's method (Gastroeuterology 5, 43 (1945)), median section was performed on abdomen of the rat under ether anesthesia and pylorus was ligated with thread. At the same time, the compound was injected into duodenum and then the incision was closed. After 5 hours, the abdomen was incised again and whole stomach was removed after ligating esophagus. The great curvature of the stomack was incised and the content was transferred to a graduated centrifuge tube. After centrifugation at 3000 rpm for 10 minutes, the volume of the gastric juice was measured. A part of the supernatant was sampled and was titrated with 0.1N NaOH until the pH became 7 using pH star (commercially available from Radio Meter Co., Ltd.).

[6] = level of the acid (mEq/ml), read-out: ED50 Gastric Acid
[7] = volume decreased to 50% of control, read-out: ED50 Volume of Gastric Juice

IC50 [2]: 5.8 ng/mL (≈ 0.0155 µM)
Structure (SMILES): CCCCC[C@H](O)/C=C/[C@@H]1[C@H]2c3cccc(CCC(=O)O)c3O[C@H]2C[C@H]1O (relative stereo) [Compound 42, 2,5,6,7-tetranor-4,8-inter-m-phenylene PGI2]
Relative Effectiveness to PGE2 (gastric acid secretion inhibition) [1]: 3.6 | ED50 [3]: 0.0486 mg/kg | ED (25 mmHg) [4]: 0.00046 mg/kg | ED50 [5, 6]: 3.8 mg/kg | ED50 [5, 7]: 4.6 mg/kg

IC50 [2]: 2.85 ng/mL (≈ 0.00749 µM)
Structure (SMILES): O=C(O)CCc1cccc2c1O[C@H]1C[C@@H](O)[C@H](/C=C/[C@@H](O)c3ccccc3)[C@@H]21 (relative stereo) [Compound 71, 15-phenyl-2,5,6,7,16,17,18,19,20-nonanor-4,8-inter-m-phenylene PGI2]
Relative Effectiveness to PGE2 (gastric acid secretion inhibition) [1]: 7.1 | ED50 [3]: 0.0015 mg/kg | ED (25 mmHg) [4]: 0.00026 mg/kg | ED50 [5, 6]: 0.034 mg/kg | ED50 [5, 7]: 0.045 mg/kg

IC50 [2]: 1000 ng/mL (≈ 2.44 µM)
Structure (SMILES): O=C(O)CCc1cccc2c1O[C@H]1C[C@@H](O)[C@H](/C=C/[C@@H](O)COc3ccccc3)[C@@H]21 (relative stereo) [Compound 120, 16-phenoxy-2,5,6,7,17,18,19,20-octanor-4,8-inter-m-phenylene PGI2]
Relative Effectiveness to PGE2 (gastric acid secretion inhibition) [1]: 54 | ED50 [3]: 0.00456 mg/kg | ED (25 mmHg) [4]: 0.00051 mg/kg | ED50 [5, 6]: 0.11 mg/kg | ED50 [5, 7]: 0.3 mg/kg

IC50 [2]: 3.2 ng/mL (≈ 0.00824 µM)
Structure (SMILES): CCC[C@H](C)C[C@H](O)/C=C/[C@@H]1[C@H]2c3cccc(CCC(=O)O)c3O[C@H]2C[C@H]1O [Compound 54, 17-(S)-methyl-2,5,6,7-tetranor-4,8-inter-m-phenylene PGI2]
Relative Effectiveness to PGE2 (gastric acid secretion inhibition) [1]: 6.1 | ED50 [3]: 0.00086 mg/kg | ED (25 mmHg) [4]: 0.00078 mg/kg | ED50 [5, 6]: 0.11 mg/kg | ED50 [5, 7]: 0.015 mg/kg

Further lines, the compound ahead of its results:

Structure (SMILES): CCCCCC[C@H](O)/C=C/[C@@H]1[C@H]2c3cccc(CCC(=O)O)c3O[C@H]2C[C@H]1O (relative stereo) [Compound 45, 20a-homo-2,5,6,7-tetranor-4,8-inter-m-phenylene PGI2]
Relative Effectiveness to PGE2 (gastric acid secretion inhibition) [1]: 3.5

Structure (SMILES): CCCCC(C)(C)[C@H](O)/C=C/[C@@H]1[C@H]2c3cccc(CCC(=O)O)c3O[C@H]2C[C@H]1O (relative stereo) [Compound 48, 16,16-dimethyl-2,5,6,7-tetranor-4,8-inter-m-phenylene PGI2]
IC50 [2]: 1000 ng/mL (≈ 2.48 µM) | ED50 [3]: 0.0023 mg/kg | ED (25 mmHg) [4]: 0.00084 mg/kg | ED50 [5, 6]: 0.63 mg/kg | ED50 [5, 7]: 6.3 mg/kg

Structure (SMILES): O=C(O)CCc1cccc2c1O[C@H]1C[C@@H](O)[C@H](/C=C/[C@@H](O)C3CCCCC3)[C@@H]21 (relative stereo) [Compound 60, 15-cyclohexyl-2,5,6,7,16,17,18,19,20-nonanor-4,8-inter-m-phenylene PGI2]
Relative Effectiveness to PGE2 (gastric acid secretion inhibition) [1]: 1.3 | IC50 [2]: 3.8 ng/mL (≈ 0.00983 µM) | ED50 [3]: 0.00679 mg/kg | ED (25 mmHg) [4]: 0.00017 mg/kg | ED50 [5, 6]: 2.39 mg/kg | ED50 [5, 7]: 1.19 mg/kg

Structure (SMILES): CCCOC[C@H](O)/C=C/[C@@H]1[C@H]2c3cccc(CCC(=O)O)c3O[C@H]2C[C@H]1O (relative stereo) [Compound 101, 2,5,6,7-tetranor-17-oxa-4,8-inter-m-phenylene PGI2]
Relative Effectiveness to PGE2 (gastric acid secretion inhibition) [1]: 4.9 | ED50 [3]: 0.0789 mg/kg | ED (25 mmHg) [4]: 0.0015 mg/kg | ED50 [5, 6]: 0.9 mg/kg | ED50 [5, 7]: 1.4 mg/kg

Structure (SMILES): CCOCC(C)(C)[C@H](O)/C=C/[C@@H]1[C@H]2c3cccc(CCC(=O)O)c3O[C@H]2C[C@H]1O (relative stereo) [Compound 108, 16,16-dimethyl-2,5,6,7-tetranor-18-oxa-4,8-inter-m-phenylene PGI2]
Relative Effectiveness to PGE2 (gastric acid secretion inhibition) [1]: 7.0 | ED50 [3]: 0.0035 mg/kg | ED50 [5, 6]: 2.02 mg/kg | ED50 [5, 7]: > 10 mg/kg

Structure (SMILES): CC(C)(Oc1ccccc1)[C@H](O)/C=C/[C@@H]1[C@H]2c3cccc(CCC(=O)O)c3O[C@H]2C[C@H]1O (relative stereo) [Compound 124, 16-methyl-16-phenoxy-2,5,6,7,18,19,20-heptanor-4,8-inter-m-phenylene PGI2]
Relative Effectiveness to PGE2 (gastric acid secretion inhibition) [1]: 62 | ED50 [3]: 0.003 mg/kg | ED (25 mmHg) [4]: 0.0013 mg/kg | ED50 [5, 6]: 0.19 mg/kg | ED50 [5, 7]: 0.75 mg/kg

Structure (SMILES): CCCCC(C)[C@H](O)/C=C/[C@@H]1[C@H]2c3cccc(CCC(=O)O)c3O[C@H]2C[C@H]1O (some centres unmarked) [Compound 51, 16-methyl-2,5,6,7-tetranor-4,8-inter-m-phenylene PGI2]
Relative Effectiveness to PGE2 (gastric acid secretion inhibition) [1]: 35 | ED50 [3]: 0.00046 mg/kg | ED (25 mmHg) [4]: 0.00011 mg/kg | ED50 [5, 6]: 0.21 mg/kg | ED50 [5, 7]: 0.36 mg/kg

Structure (SMILES): CCCCC[C@H](O)/C=C/[C@H]1[C@H](O)CC(=O)[C@@H]1C/C=C\CCCC(=O)O [PGE2, reference compound]
Relative Effectiveness to PGE2 (gastric acid secretion inhibition) [1]: 1
